Data taken from paper PMC2362650, “Phase I and pharmacokinetic study of the topoisomerase II catalytic inhibitor fostriecin” (British Journal of Cancer, 1999).

Assay: Phase I study: toxicity graded with NCI common toxicity criteria in patients
Format: in vivo, human
Text: Fostriecin (CI-920) is a topoisomerase (topo) II catalytic activity inhibitor (Boritzki et al, 1988) (Figure 1). This novel class of topo II-targeting drugs is considered of potential value for treatment of patients with tumours resistant to classic topo II poisons, including anthracyclines and podophyllotoxins (Cummings and Smyth, 1993). The nuclear enzyme topo II is essential for the regulation of DNA conformation (reviewed in Osheroff et al, 1991). Central in its action is the formation of a complex with DNA. Stabilization of this complex by topo II poisons induces DNA damage and cell death (Froelich-Ammon and Osheroff, 1995). Decreased complex formation due to decreased topo II levels is considered to be an important mechanism of tumour-resistance to topo II poisons (Beck and Danks, 1991). The topo II catalytic inhibitor fostriecin is expected to have increased activity against tumour cells with low topo II levels and this was confirmed in in vitro studies (De Jong et al, 1991). […] Because of increased toxi- city of fostriecin in dogs compared to mice, a dose below one-third of the one-tenth mouse equivalent LD10, 2 mg m-2 day-1, was chosen as starting dose in humans (Clinical Brochure Fostriecin, 1991). […] We also performed an analysis of the human pharmacokinetics of fostriecin and ex vivo experiments to investigate if the plasma drug concentrations achieved were sufficient to inhibit a tenipo- side-resistant tumour cell line. The maximum tolerated dose (MTD) of fostriecin could not be established because drug supply was stopped prematurely. However, results of this study may provide a basis for continued clinical development of this agent. PATIENTS AND METHODS Patient selection, drug administration and evaluation Patient eligibility criteria were: histologically confirmed diagnosis of a solid tumour, no longer amenable to established forms of treatment; age 18-75 years; Eastern Cooperative Oncology Group (ECOG) performance status 2; life expectancy 12 weeks; no Phase I and pharmacokinetic study of the topoisomerase II catalytic inhibitor fostriecin RS de Jong1, NH Mulder1, DRA Uges2, DTh Sleijfer1, FJP Hoppener4, HJM Groen3, PHB Willemse1, WTA van der Graaf1 and EGE de Vries1 Departments of 1Medical Oncology, 2Pharmacy and Toxicology, and 3Pulmonary Diseases, University Hospital Groningen, The Netherlands; 4EORTC New Drug Development Office, Amsterdam, The Netherlands Summary We conducted a phase I and pharmacokinetic study of the topoisomerase II catalytic inhibitor fostriecin. Fostriecin was administered intravenously over 60 min on days 1-5 at 4-week intervals. Dose was escalated from 2 mg m-2 day-1 to 20 mg m-2 day-1 in 20 patients. Drug pharmacokinetics was analysed with high performance liquid chromatography with UV-detection. Plasma collected during drug administration was tested in vitro for growth inhibition of a teniposide-resistant small-cell lung cancer (SCLC) cell line. The predominant toxicities were elevated liver transaminases (maximum common toxicity criteria (CTC) grade 4) and serum creatinine (maximum CTC grade 2). […] Duration of elevated alanine-amino transferase (ALT) was dose-limiting in one patient at 20 mg m-2. Other frequent toxicities were grade 1-2 nausea/vomiting, fever and mild fatigue. […] A metabolite, most probably dephosphorylated fostriecin, was detected in plasma and urine. […] However, further escalation seems possible and is warranted to achieve potentially effective drug levels. Fostriecin has a short plasma half-life and longer duration of infusion should be considered. […]

[1] = 4 mg m-2, 5 patients/11 courses
[2] = 6.6 mg m-2, 3 patients/4 courses
[3] = 10 mg m-2, 3 patients/7 courses

C[C@@](O)(/C=C/[C@H]1CC=CC(=O)O1)[C@@H](C[C@@H](O)\C=C/C=C\C=C\CO)OP(=O)(O)O [fostriecin]
7: CTC-grade 1 AST: courses causing toxicity, all full-dose courses [1] | CTC-grade 1 creatinine: courses causing toxicity, all full-dose courses [1]
1: CTC-grade 1 ALP: patients developing toxicity in first course (2 mg m-2, 4 patients/8 courses) | CTC-grade 2 ALT: courses causing toxicity, all full-dose courses (2 mg m-2, 4 patients/8 courses) | CTC-grade 2 ALT: patients developing toxicity in first course (2 mg m-2, 4 patients/8 courses) | CTC-grade 2 GGT: patients developing toxicity in first course (2 mg m-2, 4 patients/8 courses) | CTC-grade 1 GGT: courses causing toxicity, all full-dose courses [1] | CTC-grade 1 GGT: patients developing toxicity in first course [1] | CTC-grade 2 ALP: courses causing toxicity, all full-dose courses [1] | CTC-grade 2 ALT: courses causing toxicity, all full-dose courses [1] | CTC-grade 2 AST: courses causing toxicity, all full-dose courses [1] | CTC-grade 2 AST: patients developing toxicity in first course [1] | CTC-grade 3 ALT: patients developing toxicity in first course [1] | CTC-grade 3 AST: courses causing toxicity, all full-dose courses [1] | CTC-grade 3 GGT: patients developing toxicity in first course [1] | CTC-grade 1 creatinine: courses causing toxicity, all full-dose courses [2] | CTC-grade 1 creatinine: patients developing toxicity in first course [2] | CTC-grade 2 ALP: courses causing toxicity, all full-dose courses [2] | CTC-grade 2 ALT: courses causing toxicity, all full-dose courses [2] | CTC-grade 2 ALT: patients developing toxicity in first course [2] | CTC-grade 2 AST: courses causing toxicity, all full-dose courses [2] | CTC-grade 2 AST: patients developing toxicity in first course [2] | CTC-grade 2 bilirubin: courses causing toxicity, all full-dose courses [2] | CTC-grade 2 bilirubin: patients developing toxicity in first course [2] | CTC-grade 3 ALT: courses causing toxicity, all full-dose courses [2] | CTC-grade 3 AST: patients developing toxicity in first course [2] | CTC-grade 3 GGT: courses causing toxicity, all full-dose courses [2] | CTC-grade 3 GGT: patients developing toxicity in first course [2] | CTC-grade 1 ALP: courses causing toxicity, all full-dose courses [3] | CTC-grade 1 ALP: patients developing toxicity in first course [3] | CTC-grade 2 AST: courses causing toxicity, all full-dose courses [3] | CTC-grade 2 AST: patients developing toxicity in first course [3] | CTC-grade 2 creatinine: patients developing toxicity in first course [3] | CTC-grade 3 GGT: courses causing toxicity, all full-dose courses [3] | CTC-grade 3 GGT: patients developing toxicity in first course [3]
3: CTC-grade 1 ALP: courses causing toxicity, all full-dose courses [1] | CTC-grade 1 ALP: patients developing toxicity in first course [1] | CTC-grade 1 AST: patients developing toxicity in first course [1] | CTC-grade 1 creatinine: patients developing toxicity in first course [1] | CTC-grade 1 ALP: courses causing toxicity, all full-dose courses [2] | CTC-grade 1 AST: courses causing toxicity, all full-dose courses [3] | CTC-grade 1 creatinine: courses causing toxicity, all full-dose courses [3] | CTC-grade 2 ALT: courses causing toxicity, all full-dose courses [3]
6: CTC-grade 1 ALT: courses causing toxicity, all full-dose courses (2 mg m-2, 4 patients/8 courses) | CTC-grade 1 GGT: courses causing toxicity, all full-dose courses [3]
0: CTC-grade 1 GGT: patients developing toxicity in first course (2 mg m-2, 4 patients/8 courses) | CTC-grade 2 ALP: patients developing toxicity in first course [1] | CTC-grade 2 ALT: patients developing toxicity in first course [1] | CTC-grade 2 GGT: courses causing toxicity, all full-dose courses [1] | CTC-grade 2 GGT: patients developing toxicity in first course [1] | CTC-grade 3 AST: patients developing toxicity in first course [1] | CTC-grade 1 ALP: patients developing toxicity in first course [2] | CTC-grade 1 AST: courses causing toxicity, all full-dose courses [2] | CTC-grade 1 AST: patients developing toxicity in first course [2] | CTC-grade 1 GGT: courses causing toxicity, all full-dose courses [2] | CTC-grade 1 GGT: patients developing toxicity in first course [2] | CTC-grade 2 ALP: patients developing toxicity in first course [2] | CTC-grade 2 GGT: courses causing toxicity, all full-dose courses [2] | CTC-grade 2 GGT: patients developing toxicity in first course [2] | CTC-grade 3 ALT: patients developing toxicity in first course [2] | CTC-grade 1 ALT: courses causing toxicity, all full-dose courses [3] | CTC-grade 1 ALT: patients developing toxicity in first course [3] | CTC-grade 1 AST: patients developing toxicity in first course [3] | CTC-grade 2 ALT: patients developing toxicity in first course [3] | CTC-grade 2 GGT: courses causing toxicity, all full-dose courses [3] | CTC-grade 2 GGT: patients developing toxicity in first course [3]
2: CTC-grade 1 ALP: courses causing toxicity, all full-dose courses (2 mg m-2, 4 patients/8 courses) | CTC-grade 1 ALT: patients developing toxicity in first course (2 mg m-2, 4 patients/8 courses) | CTC-grade 1 AST: courses causing toxicity, all full-dose courses (2 mg m-2, 4 patients/8 courses) | CTC-grade 1 AST: patients developing toxicity in first course (2 mg m-2, 4 patients/8 courses) | CTC-grade 1 GGT: courses causing toxicity, all full-dose courses (2 mg m-2, 4 patients/8 courses) | CTC-grade 1 creatinine: patients developing toxicity in first course (2 mg m-2, 4 patients/8 courses) | CTC-grade 2 GGT: courses causing toxicity, all full-dose courses (2 mg m-2, 4 patients/8 courses) | CTC-grade 3 ALT: courses causing toxicity, all full-dose courses [1] | CTC-grade 1 ALT: courses causing toxicity, all full-dose courses [2] | CTC-grade 1 ALT: patients developing toxicity in first course [2] | CTC-grade 3 AST: courses causing toxicity, all full-dose courses [2] | CTC-grade 1 GGT: patients developing toxicity in first course [3] | CTC-grade 1 creatinine: patients developing toxicity in first course [3] | CTC-grade 3 ALT: courses causing toxicity, all full-dose courses [3] | CTC-grade 3 ALT: patients developing toxicity in first course [3]
4: CTC-grade 1 creatinine: courses causing toxicity, all full-dose courses (2 mg m-2, 4 patients/8 courses) | CTC-grade 1 ALT: patients developing toxicity in first course [1] | CTC-grade 3 GGT: courses causing toxicity, all full-dose courses [1] | CTC-grade 2 creatinine: courses causing toxicity, all full-dose courses [3]
8: CTC-grade 1 ALT: courses causing toxicity, all full-dose courses [1]
